pIC50: −log10 of the molar value. Activity calls are given as the source filed them. The rule behind the calls is not given here.
Legend:
Rattus norvegicus [1] = test: In vivo induction of CYP450 activity in Wistar rat liver microsomal fraction at 15 mg/kg, po qd administered over 2 weeks by measuring EROD activity using 7-ethoxyresorufine as substrate measured for 5 mins; format: ADME, organism-based; settings: microsomes
Rattus norvegicus [2] = test: In vivo induction of quinone reductase activity in Wistar rat colon cytosolic fraction at 15 mg/kg, po qd administered over 2 weeks using 2,6-DCIP as substrate relative to control; format: functional
[3] = biological target: T1, Nuclear factor erythroid 2-related factor 2 (Mus musculus) (UniProt Q60795); test: Induction of Nrf2 nuclear translocation in mouse Hepa1c1c7 cells at 20 uM after 6 hrs by DAPI/Hoechst 33258 staining-based immunofluorescence method; format: cell-based
T1 sequence (whole entry): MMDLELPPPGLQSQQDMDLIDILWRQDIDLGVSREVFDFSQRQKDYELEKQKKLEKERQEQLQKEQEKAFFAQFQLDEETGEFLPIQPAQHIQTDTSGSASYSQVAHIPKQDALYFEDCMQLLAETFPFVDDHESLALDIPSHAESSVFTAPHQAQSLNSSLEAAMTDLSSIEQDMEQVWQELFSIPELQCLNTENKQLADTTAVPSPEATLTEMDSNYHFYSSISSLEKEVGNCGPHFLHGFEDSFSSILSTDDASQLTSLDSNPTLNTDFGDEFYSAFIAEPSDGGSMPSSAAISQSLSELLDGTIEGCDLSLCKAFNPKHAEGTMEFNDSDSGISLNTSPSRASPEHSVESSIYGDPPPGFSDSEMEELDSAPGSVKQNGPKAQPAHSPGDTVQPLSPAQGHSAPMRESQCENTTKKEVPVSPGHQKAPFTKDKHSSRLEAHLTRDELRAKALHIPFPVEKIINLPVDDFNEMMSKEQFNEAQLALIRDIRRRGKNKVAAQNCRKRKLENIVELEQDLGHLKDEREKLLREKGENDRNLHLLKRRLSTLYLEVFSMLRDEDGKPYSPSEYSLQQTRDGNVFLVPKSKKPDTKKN

Salmonella typhimurium = test: Mutagenicity in Salmonella typhimurium TA98 in presence of mouse liver S9 fraction by Ames test; format: toxicity, organism-based; settings: salmonella enterica subsp. enterica serovar typhimurium
Rattus norvegicus [4] = test: In vivo induction of CYP450 activity in Wistar rat colon microsomal fraction at 15 mg/kg, po qd administered over 2 weeks by measuring EROD activity using 7-ethoxyresorufine as substrate measured for 5 mins; format: ADME, organism-based; settings: microsomes
Rattus norvegicus [5] = test: In vivo induction of CYP450 activity in Wistar rat mammary gland microsomal fraction at 15 mg/kg, po qd administered over 2 weeks by measuring EROD activity using 7-ethoxyresorufine as substrate measured for 5 mins; format: ADME, organism-based; settings: microsomes
Rattus norvegicus [6] = test: In vivo induction of GST activity in Wistar rat mammary gland cytosolic fraction at 15 mg/kg, po qd administered over 2 weeks by measuring GS-CDNB adduct formation using CDNB/GSH as substrate measured for 1 min relative to control; format: functional
[7] = biological target: T1, Nuclear factor erythroid 2-related factor 2 (Mus musculus); test: Ratio of CD for activation of Nrf2 in mutant mouse BpRc1 cells cytosolic fraction to CD for activation of Nrf2 in wild type mouse Hepa1c1c7 cells cytosolic fraction; format: cell-based
[8] = Cytotoxicity against wild type mouse Hepa1c1c7 cells after 48 hrs by SRB assay; format: functional, cell-based; settings: Hepa-1c1c7, 48 h
MCF7 = test: Cytotoxicity against human MCF7 cells assessed as cell survival at 100 uM after 24 hrs by SRB assay relative to control; format: functional
Rattus norvegicus [9] = test: Toxicity in Wistar rat assessed as effect on body weight at 15 mg/kg, po qd administered over 2 weeks; format: organism-based; settings: in vivo, 336 h
[10] = biological target: T1, Nuclear factor erythroid 2-related factor 2 (Mus musculus); test: Ratio of activation of wild type Nrf2 in mouse Hepa1c1c7 cells cytosolic fraction to activation of Nrf2 in mutant mouse BpRc1 cells cytosolic fraction; format: cell-based
[11] = biological target: T1, Nuclear factor erythroid 2-related factor 2 (Mus musculus); test: Activation of Nrf2 in mutant mouse BpRc1 cells cytosolic fraction assessed as induction of quinone reductase activity at 10 uM using 2,6-DCIP as substrate in presence of NADH incubated for 48 hrs measured for 1 min relative to control; format: cell-based
[12] = biological target: T1, Nuclear factor erythroid 2-related factor 2 (Mus musculus); test: Activation of Nrf2 in wild type mouse Hepa1c1c7 cells cytosolic fraction assessed as induction of quinone reductase activity at 10 uM using 2,6-DCIP as substrate in presence of NADH incubated for 48 hrs measured for 1 min relative to control
Rattus norvegicus [13] = test: In vivo induction of GST activity in Wistar rat liver cytosolic fraction at 15 mg/kg, po qd administered over 2 weeks by measuring GS-CDNB adduct formation using CDNB/GSH as substrate measured for 1 min relative to control; format: functional
Rattus norvegicus [14] = test: In vivo induction of quinone reductase activity in Wistar rat liver cytosolic fraction at 15 mg/kg, po qd administered over 2 weeks using 2,6-DCIP as substrate relative to control; format: functional
Rattus norvegicus [15] = test: In vivo induction of GST activity in Wistar rat colon cytosolic fraction at 15 mg/kg, po qd administered over 2 weeks by measuring GS-CDNB adduct formation using CDNB/GSH as substrate measured for 1 min relative to control; format: functional
[16] = biological target: T1, Nuclear factor erythroid 2-related factor 2 (Mus musculus); test: Activation of Nrf2 in wild type mouse Hepa1c1c7 cells cytosolic fraction assessed as induction of quinone reductase activity using 2,6-DCIP as substrate in presence of NADH incubated for 48 hrs measured for 1 min
HK-2 = test: Genotoxicity in human HK2 cells assessed as induction of DNA strand breakage at 20 uM after 6 hrs by DAPI staining based alkaline comet assay; format: toxicity, cell-based; settings: hk-2, 6 h
[17] = Ratio of IC50 for cytotoxicity against wild type mouse Hepa1c1c7 cells to CD for activation of Nrf2 in wild type mouse Hepa1c1c7 cells cytosolic fraction
Rattus norvegicus [18] = test: In vivo induction of quinone reductase activity in Wistar rat mammary gland cytosolic fraction at 15 mg/kg, po qd administered over 2 weeks using 2,6-DCIP as substrate relative to control; format: functional
[19] = Cytotoxicity against mutant mouse BpRc1 cells after 48 hrs by SRB assay; format: functional, cell-based; settings: BPrc1, 48 h
TK-10 = test: Cytotoxicity against human TK10 cells assessed as cell survival after 24 hrs by SRB assay; format: functional, cell-based; settings: TK-10, 24 h
[20] = biological target: T1, Nuclear factor erythroid 2-related factor 2 (Mus musculus); test: Activation of Nrf2 in mutant mouse BpRc1 cells cytosolic fraction assessed as induction of quinone reductase activity using 2,6-DCIP as substrate in presence of NADH incubated for 48 hrs measured for 1 min; format: cell-based
Rattus norvegicus [21] = test: Toxicity in Wistar rat assessed as effect on behavior at 15 mg/kg, po qd administered over 2 weeks; format: organism-based; settings: in vivo, 336 h
[22] = Ratio of IC50 for cytotoxicity against mutant mouse BpRc1 cells to CD for activation of Nrf2 in mutant mouse BpRc1 cells cytosolic fraction

In the case of `O=C(/C=C/c1cccnc1Br)c1ccccc1O`, the Activity (Rattus norvegicus [1]) was “Non-Toxic”, the Activity (Rattus norvegicus [2]) was 11% and the Activity [3] was “Active”. For the same compound, the Activity (Salmonella typhimurium) was “Non-Toxic”, the Activity (Rattus norvegicus [4]) was “Non-Toxic” and the Activity (Rattus norvegicus [5]) was “Non-Toxic”. It also gave an Activity (Rattus norvegicus [6]) of 10%, a Ratio [7] of 0.71 and a pIC50 [8] of 4.41. The Activity (MCF7) was “Active”, the Activity (Rattus norvegicus [9]) was “Non-Toxic” and the Ratio [10] was 0.8. For the same compound, the fold change (FC) [11] was 1.98, the fold change (FC) [12] was 1.57 and the Activity (Rattus norvegicus [13]) was 29%. The Activity (Rattus norvegicus [14]) was 25%, the Activity (Rattus norvegicus [15]) was 16% and the CD [16] was 14 µM. For the same compound, the Activity (HK-2) was “Non-Toxic”, the Ratio [17] was 2.8 and the Activity (Rattus norvegicus [18]) was 13%. For the same compound, the pIC50 [19] was under 3.70, the pIC50 (TK-10) was 4.59 and the CD [20] was 10 µM. For the same compound, the Activity (Rattus norvegicus [21]) was “Non-Toxic” and the Ratio [22] was over 20.

— ChEMBL document CHEMBL4130341 (Medchemcomm, 2016)
